According to PMC5698383 (Applied Biochemistry and Biotechnology, 2017):

What was measured:
FtFBPaseII [1] = target: T1, FtFBPaseII (Francisella tularensis, UniProt Q5NEJ8)
T1 construct: gene gplX

FtFBPaseII [2] = target: T1, FtFBPaseII; assay: biochemical; conditions: read-out: % inhibition at 1 mM

T1 sequence (Q5NEJ8 1-328): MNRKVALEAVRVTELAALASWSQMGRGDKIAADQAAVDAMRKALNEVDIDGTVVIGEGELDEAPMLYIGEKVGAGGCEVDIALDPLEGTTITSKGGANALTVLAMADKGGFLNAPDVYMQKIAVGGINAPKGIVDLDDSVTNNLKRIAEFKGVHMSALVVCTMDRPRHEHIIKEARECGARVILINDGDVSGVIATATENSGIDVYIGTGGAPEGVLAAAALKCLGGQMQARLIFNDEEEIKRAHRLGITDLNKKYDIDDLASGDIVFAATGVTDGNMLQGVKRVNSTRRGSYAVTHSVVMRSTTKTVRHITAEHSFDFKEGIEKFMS

Structure (SMILES): O=P(O)(O)O [phosphate]
- % inhibition at 150 μM (FtFBPaseII [1]): 69%

Structure (SMILES): Nc1ncnc2c1ncn2[C@@H]1O[C@H](COP(=O)(O)OP(=O)(O)O)[C@@H](O)[C@H]1O [Adenosine diphosphate]
- inhibition at 1000 µM (FtFBPaseII [2]): 28%
